Source: patent US20250320209A1, “Salts and Solid Forms of Sonrotoclax Intermediate” (BeOne Medicines I GmbH, priority 2022, published 2025)

How the values were obtained:
[1] = Salt formation of Compound 2 with seven acids in seven organic solvents: physical form obtained; type: physicochemical; settings: for physical form of the obtained salt: in certain organic solvents (summary of Table 1); for physical form of Compound 2 salt: 10 mL, acid 1.73 mmol
Description: In one example, Compound 2 (1.0 g, 1.73 mmol) in MTBE (10 mL) solution and oxalic acid (0.16 g, 1.73 mmol) was added dropwise. The reaction mixture was stirred for about 6 hours and filtered to obtain a wet cake of methyl 4-(2-{(2S)-2-[2-(propan-2-yl)phenyl]pyrrolidin-1-yl}-7-azaspiro[3.5]nonan-7-yl)-2-[(1H-pyrrolo[2,3-b]pyridin-5-yl)oxy]benzoate oxalate salt (Compound 3).
The other acids were used as the following amounts, D-(−)-tartaric (0.26 g, 1.73 mmol), p-toluenesulfonic acid (0.3 g, 1.73 mmol), D-DTTA (0.67 g, 1.73 mmol), Citric acid (0.33 g, 1.73 mmol), Malic acid (0.23 g, 1.73 mmol), Maleic acid (0.20 g, 1.73 mmol); and the other organic solvents were used with 10 mL volume.

[2] = Properties of the solid oxalate salt of Compound 2 as stated in text

Molecule | physical form of the obtained salt [1] | physical form of Compound 2 salt ([1]; solvent 2-MeTHF) | physical form of Compound 2 salt ([1]; solvent Acetone) | physical form of Compound 2 salt ([1]; solvent DCM) | physical form of Compound 2 salt ([1]; solvent EA) | physical form of Compound 2 salt ([1]; solvent IPAc) | physical form of Compound 2 salt ([1]; solvent MTBE) | physical form of Compound 2 salt ([1]; solvent MeOH) | hydroscopic property ([2]; solid (wet cake) obtained from MTBE) | stability ([2]; solid salt, no test described)
COC(=O)c1ccc(N2CCC3(CC2)CC(N2CCC[C@H]2c2ccccc2C(C)C)C3)cc1Oc1cnc2[nH]ccc2c1.O=C(O)C(=O)O [Compound 3, methyl 4-(2-{(2S)-2-[2-(propan-2-yl)phenyl]pyrrolidin-1-yl}-7-azaspiro[3.5]nonan-7-yl)-2-[(1H-pyrrolo[2,3-b]pyridin-5-yl)oxy]benzoate oxalate salt] | solid form | oil | Clean solution | Clean solution | oil | moisture | Fine solid | Clean solution | low | very good
Cc1ccc(C(=O)O[C@H](C(=O)O)[C@H](OC(=O)c2ccc(C)cc2)C(=O)O)cc1 [D-DTTA] | solid form | Clean solution | Clean solution | Clean solution | Clean solution | oil | Fine solid | Clean solution | – | –
Cc1ccc(S(=O)(=O)O)cc1 [p-toluenesulfonic acid] | – | Clean solution | Clean solution | Clean solution | Clean solution | Clean solution | moisture absorption | Clean solution | – | –
Citric acid | – | oil | Clean | Clean | oil | moisture | moisture | Clean | – | –
Maleic acid | – | Clean solution | Clean solution | Clean solution | Clean solution | oil | moisture | Clean solution | – | –
Malic acid | – | Clean solution | Clean solution | Clean solution | oil | oil | moisture | Clean solution | – | –
